These results are taken from patent US4334078A, “Dibenzothiophenes” (Hoffmann-La Roche Inc., priority 1980, dated 1982).

This series deals with mice. Briefly: acute toxicity (LD50). It is filed as in vivo. To be noted: p.o. in mice.

On to `O=C(O)Cc1ccc2c(c1)sc1ccc(Cl)cc12` [8-chloro-dibenzothiophene-3-acetic acid], for which the LD50 amounted to 775 mg.
